Patent US8883785B2, “Certain kynurenine-3-monooxygenase inhibitors, pharmaceutical compositions, and methods of use thereof” (CHDI Foundation, Inc., priority 2010, dated 2014)

Legend:
[1] = biological target: T1, KMO mouse enzyme (Mus musculus, UniProt Q91WN4); assay: Mouse KMO enzyme assay: L-kynurenine hydroxylation to 3OH-KYN by LC/MS; type: biochemical; conditions: compound at 10 μM; KMO from mouse liver mitochondria; read-out: INH.Mouse @ 10 μM
T1 construct: KMO enzyme prepared at Evotec from mouse liver (4-6 weeks old) via mitochondria isolation; from tissue; host or cells: mouse liver (4-6 weeks old), mitochondria isolation
Experimental: Product is quantified by multiple reaction monitoring (MRM method).
IC50's are calculated using automated fitting algorithm (A+Analysis).

[2] = Solubility remark made when LCMS was attempted; type: physicochemical; conditions: solvents for LCMS

T1 sequence (Q91WN4 whole entry): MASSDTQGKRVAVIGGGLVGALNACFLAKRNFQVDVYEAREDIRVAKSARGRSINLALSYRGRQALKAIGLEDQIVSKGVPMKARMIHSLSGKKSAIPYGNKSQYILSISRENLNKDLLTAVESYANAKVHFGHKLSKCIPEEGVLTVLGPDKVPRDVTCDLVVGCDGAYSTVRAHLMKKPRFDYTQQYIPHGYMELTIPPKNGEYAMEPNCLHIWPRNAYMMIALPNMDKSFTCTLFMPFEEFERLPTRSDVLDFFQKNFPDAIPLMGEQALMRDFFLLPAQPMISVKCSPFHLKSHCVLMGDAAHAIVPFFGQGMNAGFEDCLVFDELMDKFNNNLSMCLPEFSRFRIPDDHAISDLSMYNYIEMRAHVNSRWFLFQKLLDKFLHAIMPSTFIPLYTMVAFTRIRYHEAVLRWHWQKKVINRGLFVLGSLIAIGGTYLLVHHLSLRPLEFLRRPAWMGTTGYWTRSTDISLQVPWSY

Structure (SMILES) | inhibition at 10 µM [1] [%] | solubility [2]
Cc1c[nH]c(-c2cc(-c3ccc(Cl)c(Cl)c3)ncn2)n1 [4-(3,4-dichlorophenyl)-6-(4-methyl-1H-imidazol-2-yl)pyrimidine] | 92.3 | –
Clc1ccc(-c2cc(-c3nccs3)ncn2)cc1Cl [4-(3,4-Dichloro-phenyl)-6-thiazol-2-yl-pyrimidine] | 48 | –
CNC(=O)c1ccc(-c2cc(-c3ccc(Cl)c(Cl)c3)ncn2)nc1 [6-[6-(3,4-dichlorophenyl)pyrimidin-4-yl]-N-methylpyridine-3-carboxamide] | 39.1 | –
Clc1ccc(-c2cc(-c3nc4ccccc4[nH]3)ncn2)cc1Cl [2-[6-(3,4-dichlorophenyl)pyrimidin-4-yl]-1H-benzimidazole] | 49.7 | –
CC(C)Oc1ccc(-c2cc(-c3nnn[nH]3)ncn2)cc1Cl [4-(3-Chloro-4-isopropoxy-phenyl)-6-(1H-tetrazol-5-yl)-pyrimidine] | 100 | –
FC(F)(F)c1nc(-c2cc(-c3ccc(Cl)c(Cl)c3)ncn2)no1 [4-(3,4-dichlorophenyl)-6-[5-(trifluoromethyl)-1,2,4-oxadiazol-3-yl]pyrimidine] | 87 | –
Clc1ccc(-c2cc(-c3cc[nH]n3)ncn2)cc1Cl [4-(3,4-Dichloro-phenyl)-6-(1H-pyrazol-3-yl)-pyrimidine] | 19 | –
Cc1nc(-c2cc(-c3ccc(Cl)c(Cl)c3)ncn2)no1 [4-(3,4-dichlorophenyl)-6-(5-methyl-1,2,4-oxadiazol-3-yl)pyrimidine] | 51 | –
Clc1ccc(-c2cc(-c3ncco3)ncn2)cc1Cl [4-(3,4-Dichloro-phenyl)-6-oxazol-2-yl-pyrimidine] | 93 | –
Cc1nnc(-c2cc(-c3ccc(Cl)c(Cl)c3)ncn2)[nH]1 [4-(3,4-dichlorophenyl)-6-(5-methyl-4H-1,2,4-triazol-3-yl)pyrimidine] | 80 | –
FC(F)(F)Oc1ccc(-c2cc(-c3nnn[nH]3)ncn2)cc1Cl [4-(3-Chloro-4-trifluoromethoxy-phenyl)-6-(1H-tetrazol-5-yl)-pyrimidine] | 100 | –
Fc1ccc(-c2cc(-c3nnn[nH]3)ncn2)cc1F [4-(3,4-difluorophenyl)-6-(1H-tetrazol-5-yl)pyrimidine] | 101 | –
Cc1coc(-c2cc(-c3ccc(Cl)c(Cl)c3)nc(C)n2)n1 [4-(3,4-dichlorophenyl)-2-methyl-6-(4-methyl-1,3-oxazol-2-yl)pyrimidine] | 46.8 | –
Cc1coc(-c2cc(-c3ccc(Cl)c(Cl)c3)ncn2)n1 [4-(3,4-dichlorophenyl)-6-(4-methyl-1,3-oxazol-2-yl)pyrimidine] | 101 | –
FC(F)(F)c1cn(-c2cc(-c3ccc(Cl)c(Cl)c3)ncn2)cn1 [4-(3,4-dichlorophenyl)-6-[4-(trifluoromethyl)imidazol-1-yl]pyrimidine] | 64.4 | –
Cc1ccc(-c2cc(-c3nnn[nH]3)ncn2)cc1F [4-(3-Fluoro-4-methyl-phenyl)-6-(1H-tetrazol-5-yl)-pyrimidine] | 100 | –
Clc1ccc(-c2cc(C3=NCCN3)ncn2)cc1Cl [4-(3,4-dichlorophenyl)-6-(4,5-dihydro-1H-imidazol-2-yl)pyrimidine] | 95.5 | –
FC(F)(F)c1ccn(-c2cc(-c3ccc(Cl)c(Cl)c3)ncn2)n1 [4-(3,4-dichlorophenyl)-6-[3-(trifluoromethyl)pyrazol-1-yl]pyrimidine] | 56.7 | –

Further lines, with some results ahead:

inhibition at 10 µM [1] [%] | Structure (SMILES) | solubility [2]
99 | O=c1[nH]c(-c2cc(-c3ccc(OC(F)(F)F)c(Cl)c3)ncn2)no1 [3-[6-(3-Chloro-4-trifluoromethoxy-phenyl)-pyrimidin-4-yl]-4H-[1,2,4]oxadiazol-5-one] | –
100 | O=c1[nH]c(-c2cc(-c3ccc(F)c(Cl)c3)ncn2)no1 [3-[6-(3-Chloro-4-fluoro-phenyl)-pyrimidin-4-yl]-4H-[1,2,4]oxadiazol-5-one] | –
54.4 | Clc1cccc(-c2cc(-c3nc4ccccc4o3)ncn2)c1 [2-[6-(3-chlorophenyl)pyrimidin-4-yl]-1,3-benzoxazole] | –
65.6 | Cn1nnnc1-c1cc(-c2cccc(Cl)c2)ncn1 [4-(3-chlorophenyl)-6-(1-methyltetrazol-5-yl)pyrimidine] | –
103 | Fc1ccc(-c2cc(-c3nnn[nH]3)ncn2)cc1Cl [4-(3-chloro-4-fluorophenyl)-6-(1H-tetrazol-5-yl)pyrimidine] | –
100 | O=c1[nH]c(-c2cc(-c3ccc(F)c(F)c3)ncn2)no1 [3-[6-(3,4-Difluoro-phenyl)-pyrimidin-4-yl]-4H-[1,2,4]oxadiazol-5-one] | –
99 | Clc1ccc(-c2cc(-c3ncc[nH]3)ncn2)cc1Cl [4-(3,4-dichlorophenyl)-6-(1H-imidazol-2-yl)pyrimidine] | –
100 | Clc1ccc(-c2cc(-c3nnc[nH]3)ncn2)cc1Cl [4-(3,4-dichlorophenyl)-6-(4H-1,2,4-triazol-3-yl)pyrimidine] | –
73.6 | Cn1[nH]cc(-c2cc(-c3ccc(Cl)c(Cl)c3)ncn2)c1=O [4-[6-(3,4-dichlorophenyl)pyrimidin-4-yl]-2-methyl-1H-pyrazol-3-one] | Compound is insuffciently souble in any acceptable solvent in order to obtain a meaningful LCMS 1H NMR (500 MHz, DMSO-d6) d ppm 8.88 (1H, s), 8.44 (1H, br.s.), 8.26 (1H, br.s.), 8.19 (1H, d), 8.06 (1H, br.s.), 7.85 (1H, d), 3.45 (3H, s)
96 | CC(C)Oc1ccc(-c2cc(-c3noc(=O)[nH]3)ncn2)cc1Cl [3-[6-(3-Chloro-4-isopropoxy-phenyl)-pyrimidin-4-yl]-4H-[1,2,4]oxadiazol-5-one] | –
91 | Cc1noc(-c2cc(-c3cccc(Cl)c3)ncn2)n1 [4-(3-chlorophenyl)-6-(3-methyl-1,2,4-oxadiazol-5-yl)pyrimidine] | –
103 | Clc1cccc(-c2cc(-c3nnn[nH]3)ncn2)c1 [4-(3-chlorophenyl)-6-(1H-tetrazol-5-yl)pyrimidine] | –
102 | Clc1cccc(-c2cc(-c3nnc[nH]3)ncn2)c1 [4-(3-chlorophenyl)-6-(4H-1,2,4-triazol-3-yl)pyrimidine] | –
58.1 | O=c1[nH]nc(-c2cc(-c3ccc(Cl)c(Cl)c3)ncn2)[nH]1 [5-[6-(3,4-dichlorophenyl)pyrimidin-4-yl]-2,4-dihydro-1,2,4-triazol-3-one] | very unsoluble compound- LCMS unobtainable 1H NMR (250 MHz, DMSO-d6) d ppm 9.27-9.32 (1 H, m), 8.39- 8.47 (2 H, m), 8.17-8.25 (1 H, m), 7.76-7.85 (1 H, m)
98 | Cc1ccc(-c2cc(-c3noc(=O)[nH]3)ncn2)cc1Cl [3-[6-(3-Chloro-4-methyl-phenyl)-pyrimidin-4-yl]-4H-[1,2,4]oxadiazol-5-one] | –
100 | Cc1ccc(-c2cc(-c3noc(=O)[nH]3)ncn2)cc1F [3-[6-(3-Fluoro-4-methyl-phenyl)-pyrimidin-4-yl]-4H-[1,2,4]oxadiazol-5-one] | –
101 | Cc1coc(-c2cc(-c3cccc(Cl)c3)ncn2)n1 [4-(3-chlorophenyl)-6-(4-methyl-1,3-oxazol-2-yl)pyrimidine] | –
105 | O=c1[nH]cc(-c2cc(-c3ccc(Cl)c(Cl)c3)ncn2)[nH]1 [4-[6-(3,4-dichlorophenyl)pyrimidin-4-yl]-1,3-dihydroimidazol-2-one] | –
65.2 | O=c1[nH]c(-c2cc(-c3cncc(Cl)c3)ncn2)no1 [3-[6-(5-chloropyridin-3-yl)pyrimidin-4-yl]-4H-1,2,4-oxadiazol-5-one] | –
96.3 | O=c1[nH]c(-c2cc(-c3cccc(Cl)c3)ncn2)no1 [3-[6-(3-chlorophenyl)pyrimidin-4-yl]-4H-1,2,4-oxadiazol-5-one] | –
91.2 | Cn1nnc(-c2cc(-c3cccc(Cl)c3)ncn2)n1 [4-(3-chlorophenyl)-6-(2-methyltetrazol-5-yl)pyrimidine] | –
102 | Clc1cccc(-c2cc(-c3nc4ccccc4[nH]3)ncn2)c1 [2-[6-(3-chlorophenyl)pyrimidin-4-yl]-1H-benzimidazole] | –
39.1 | Clc1cccc(-c2cc(-c3nc4ccc(Cl)cc4[nH]3)ncn2)c1 [6-chloro-2-[6-(3-chlorophenyl)pyrimidin-4-yl]-1H-benzimidazole] | –
102 | S=c1[nH]c(-c2cc(-c3ccc(Cl)c(Cl)c3)ncn2)no1 [3-[6-(3,4-dichlorophenyl)pyrimidin-4-yl]-4H-1,2,4-oxadiazole-5-thione] | –
